# Laboratory results as given in US20240360107A1, “AN EIF4A INHIBITOR WITH A NOVEL MECHANISM OF ACTION” (ARIZONA BOARD OF REGENTS ON BEHALF OF THE UNIVERSITY OF …, priority 2021, published 2024).
# “Also recorded” adds a separate entry of the source. Where two headings read alike, the source gives them in different places.
# Columns and labels:
# eIF4A [1] = molecular target: T1, eIF4A (Homo sapiens, UniProt P60842); assay: kinetic testing using the malachite green assay (ATP and RNA titration); type: biochemical; design: 6xHis with TEV protease site (N, cleaved yes); made in house; host or cells: E. coli BL21-CodonPlus; settings: for Alpha value for ATP / Ki / Alpha value for RNA: mixed-model inhibition fit
# T1 sequence (P60842 whole entry): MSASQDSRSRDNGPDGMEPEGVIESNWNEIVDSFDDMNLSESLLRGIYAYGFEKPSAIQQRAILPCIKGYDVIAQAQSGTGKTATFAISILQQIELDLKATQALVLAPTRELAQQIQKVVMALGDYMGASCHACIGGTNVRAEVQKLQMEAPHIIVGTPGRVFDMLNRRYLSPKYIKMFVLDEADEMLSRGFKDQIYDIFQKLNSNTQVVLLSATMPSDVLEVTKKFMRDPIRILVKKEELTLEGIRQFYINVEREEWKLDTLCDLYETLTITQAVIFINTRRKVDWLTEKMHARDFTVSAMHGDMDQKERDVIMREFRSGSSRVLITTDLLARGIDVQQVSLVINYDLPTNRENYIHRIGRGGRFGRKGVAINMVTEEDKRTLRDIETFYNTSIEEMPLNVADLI
# Experimental: (§1) ATP titration (left) used 250 μg/mL RNA. Data were fit using unbiased mixed-model inhibition in Prism 6.0. Alpha value for ATP is 0.424, indicating an ATP-uncompetitive inhibitor. Kiapp for ATP is 10.3 μM. RNA titration (right) used 250 μM ATP. […] Kiapp for RNA is 9.59 μM. Data shown are an average of 3 independent experiments.
# as §1, with “was done with” for “used”, “0.514,” for “0.424,”, “ATP=4.79” for “ATP is 10.3”, “RNA=4.27” for “RNA is 9.59”
# (§2) ATPase assay. Recombinant WT or mutant eIF4A was added to a clear bottom 384 well plate (Greiner) in ATPase buffer (20 mM Tris pH 7.4, 80 mM KCl, 2.5 mM MgCl2, 1 mM DTT, 1% glycerol). Compounds were added and the plate was incubated at 37° C. for 20 min. ATP/RNA solution was added to afford a 20 μL per well reaction volume with 750 nM eIF4A, 250 μM ATP, and 0.25 mg/mL Yeast RNA (Sigma) for the initial screen and dose responses, and varying concentrations of ATP and RNA for the kinetic assays. The plate was incubated for 4 h at 37° C. for the initial screen and dose responses, and at seven time points (1 hour-7 hours) for kinetic assays. 0.04% v/v (final concentration) Tween-20 was added to a Malachite Green solution, and the Malachite Green (40 μL per well) was added. The solution was incubated for 5 minutes at room temperature and Absorbance at 660 nm was read on a SpectraMax iD5 plate reader (Molecular Devices).
# eIF4A [2] = molecular target: T1, eIF4A; assay: RNA-stimulated malachite green ATPase assay; type: biochemical; design: 6xHis with TEV protease site (N, cleaved yes); made in house; host or cells: E. coli BL21-CodonPlus; settings: for IC50: 750 nM eIF4A, 250 μM ATP, 0.25 mg/mL Yeast RNA, 4 h at 37° C.
# Experimental: Human eIF4A protein was produced recombinantly and a greater than 100,000-compound screen for inhibitors was completed using a malachite green ATPase assay (FIG. 11A). […] A stable mixture of yeast RNAs was added in an effort to improve this system and create a more biologically relevant eIF4A assay. eIF4A ATPase activity was accelerated without a statistically significant increase in the background signal in the presence of this RNA (FIG. 11B), and the new conditions gave excellent statistical parameters in a 384-well plate format (FIG. 11C).
# as §2
# [3] = test system: HCV IRES-dependent translation of Renilla luciferase; assay: in vitro translation of bicistronic luciferase reporter in rabbit reticulocyte lysate, Renilla luciferase; type: biochemical; settings: Cycloheximide 600 μM, Silvestrol 100 nM
# Text: A bicistronic luciferase reporter ([…]) (FIG. 7B, top) was programmed into rabbit reticulocyte lysates, cellular extracts capable of performing both cap-dependent and Hepatitis C virus (HCV) internal ribosomal entry site (IRES)-mediated translation. eIF4A is the enzymatic driver of cap-dependent translation and is not involved in translation through HCV IRES. Compounds that inhibit eIF4A should inhibit cap-dependent translation of firefly (FF) luciferase while leaving IRES-mediated translation of Renilla (Ren) luciferase relatively unaffected. The inhibitory activities of cycloheximide, silvestrol, and 28 were assessed in this in vitro translation assay (FIG. 7B, bottom). […] The ability of compound 28 to preferentially target cap-dependent translation in a similar manner as silvestrol provides promising evidence that 28 inhibits eIF4A and not other proteins in the general translational machinery.
# The dual-luciferase reporter plasmid pSP/(CAG)33/FF/HCV/Ren-pA51 was linearized with BamHI and subsequently in vitro transcribed using the Promega mMessage mMachine SP6 transcription kit, according to manufacturer's specifications. RNA was precipitated with LiCI and resuspended in H2O for use in in vitro translation experiments. Rabbit reticulocyte lysate (RRL) (nuclease-treated, Promega) was used to assess inhibitory effects of 28 on translation of the dual-reporter. Briefly, a reaction consisting of 50% RRL, 30 ng/μL reporter RNA, 10 μM Amino Acid Mixture Minus Methionine, 10 μM Amino Acid Mixture Minus Leucine, […], 1 U/μL RNAseOut (Thermo), and drug (final DMSO concentration 1%) were incubated at 30° C. for 90 minutes. The reaction was quenched with 50 μL 1× Passive Lysis Buffer (Promega), 10 μL of the mix was transferred to a 96-well white plate (Cellstar), and the Dual-Reporter Luciferase Assay System (Promega) was used to generate luminescence according to the manufacturer's instructions. Luminescence was detected using a plate reader (BioTek HT Synergy).
# eIF4A [4] = molecular target: T1, eIF4A; assay: MANT-ATP fluorescence polarization assay; type: binding; design: 6xHis with TEV protease site (N, cleaved yes); made in house; host or cells: E. coli BL21-CodonPlus; settings: compound 200 μM or ADP 1 mM; MANT-ATP 100 nM
# Experimental: Additional biochemical testing was performed on compound 28 to investigate its mechanism of eIF4A inhibition. Initially, kinetics experiments were repeated with compound 28, and the results for compound 28 matched those of compound 1 (FIG. 5D, 4A). Upon addition of compound 28, Km and Vmax of eIF4A decreased with respect to ATP. With respect to RNA, eIF4A Km […] and Vmax remained constant. […] Fluorescence polarization (FP) assays were utilized to confirm this mechanism of inhibition by testing the ability of compound 28 to compete fluorescent substrates off eIF4A. First, an FP assay was performed with MANT-ATP, a fluorescent, non-hydrolysable ATP analog, as the substrate.
# MANT-ATP fluorescence polarization assay. Recombinant eIF4A (15 μM) was added to a low-volume black 384 well plate (Greiner). Yeast RNA (0.25 mg/mL) was added along with compound (200 μM) or ADP (1 mM) and the plate was incubated for 20 min. MANT-ATP was added (100 nM) and the plate was incubated for 30 min before fluorescence polarization was read at 355 nm:448 nm (Ex:Em) on a SpectraMax iD5 plate reader (Molecular Devices).
# [5] = ATP titration, 250 μg/mL RNA, read-out: Kiapp for ATP
# [6] = RNA titration, 250 μM ATP, read-out: Kiapp for RNA
SMILES,mechanism of inhibition with respect to ATP (eIF4A [1]),mechanism of inhibition with respect to RNA (eIF4A [1]),"Alpha value for ATP (eIF4A [1]; ATP titration, 250 μg/mL RNA)",Ki (eIF4A [1]; [5]) [µM],"Alpha value for RNA (eIF4A [1]; RNA titration, 250 μM ATP)",Ki (eIF4A [1]; [6]) [µM],IC50 (eIF4A [2]) [µM],effect on HCV IRES-mediated translation (Renilla luciferase) [3],potency in the eIF4A ATPase assay (in words) (eIF4A [2]; comparison within the series),competition of MANT-ATP off eIF4A (eIF4A [4])
"CCCCc1ccc(-c2ccc(-c3cc(C(=O)O)c4cc(Br)ccc4n3)o2)cc1 [Compound 1, 6-bromo-2-(5-(4-butylphenyl)furan-2-yl)quinoline-4-carboxylic acid]",uncompetitive with respect to ATP,RNA-competitive,0.424,10.3,4.53×10^13,9.59,26.6 ± 2.46,–,–,–
"CCCCc1ccc(-c2ccc(-c3cc(C(=O)O)c4cc([N+](=O)[O-])ccc4n3)o2)cc1 [Compound 28, 2-(5-(4-butylphenyl)furan-2-yl)-6-nitroquinoline-4-carboxylic acid]",ATP-uncompetitive,RNA-competitive,0.514,4.79,4.52×10^21,4.27,8.6 ± 0.944,only show a modest effect on HCV IRES-dependent translation of Renilla luciferase,most potent inhibitor of eIF4A ATPase activity; also recorded: over two-fold more potent than any other molecule previously produced in the series,not an ATP-competitive inhibitor
